This is an account of results in patent US5061794A, “Cephalosporin derivatives, and antibacterial agents” (priority 1986, dated 1991).

One assay has as its system Ps. cepacia 23. The assay can be described thus: in vitro antibacterial activity, agar plate dilution method (MIC). Conditions: read-out: Minimum Inhibitory Concentration (MIC). Type of assay: cell-based, Pseudomonas cepacia. An outline of the steps:
(§1)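 Agar dilution: MH agar + graded drug conc.; inoculum 10^6 CFU/ml (overnight MH broth culture, one loopful); 37° C., 16 h; MIC, μg/ml.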

The next assay relates to E. coli CSH2 (RK1). The assay can be described thus: microbe, parasite or virus in culture. It counts as cell-based. Conditions: Escherichia coli, 16 h, read-out: Minimum Inhibitory Concentration (MIC), *E. coli CSH2 (RK1), lactamase-producing strain; 10^6 CFU/ml. An outline of the steps: as §1
The next assay deals with E. coli CSH(RE45). Put plainly: microbe, parasite or virus in culture. It counts as cell-based. Conditions: Escherichia coli, 16 h, read-out: Minimum Inhibitory Concentration (MIC), *E. coli CSH(RE45), lactamase-producing strain; 10^6 CFU/ml. An outline of the steps:
as §1

Another assay deals with A. calcoaceticus No. 4. The assay can be described thus: in vitro antibacterial activity, agar plate dilution method (MIC). Type of assay: cell-based, Acinetobacter calcoaceticus. Conditions: Acinetobacter calcoaceticus, NO.4, 16 h, read-out: Minimum Inhibitory Concentration (MIC), A. calcoaceticus No. 4; 10^6 CFU/ml. An outline of the steps:
as §1

The next assay deals with Ps. aeruginosa IF03445. Described as above. Type of assay: cell-based, Pseudomonas aeruginosa. Conditions: Pseudomonas aeruginosa, IF03445, 16 h, read-out: Minimum Inhibitory Concentration (MIC), Ps. aeruginosa IF03445; 10^6 CFU/ml. An outline of the steps:
as §1

The next assay concerns Ps. aeruginosa AKR17. Described as above. Type of assay: cell-based, Pseudomonas aeruginosa. The settings on record: Pseudomonas aeruginosa, read-out: Minimum Inhibitory Concentration (MIC). An outline of the steps:
as §1

The test system of the next assay is Ps. aeruginosa AK 109. Described as above. Type of assay: cell-based, Pseudomonas aeruginosa. The settings on record: Pseudomonas aeruginosa, AK109, 16 h. An outline of the steps: as §1
In another assay the test system is K. pneumoniae PCI-602. Described as above. The settings on record: Klebsiella pneumoniae, PCI602, 16 h, read-out: Minimum Inhibitory Concentration (MIC), K. pneumoniae PCI-602; 10^6 CFU/ml. It counts as cell-based. An outline of the steps:
as §1

The test system of a further assay is M. morganii GN5407. Described as above. Type of assay: cell-based. Conditions: Morganella morganii, GN5407, 16 h, read-out: Minimum Inhibitory Concentration (MIC), *M. morganii GN5407, lactamase-producing strain; 10^6 CFU/ml. An outline of the steps: as §1
In the next assay the test system is S. marcescens No. 16-2. The description is as above. It counts as cell-based. The settings on record: Serratia marcescens, NO.162, 16 h, read-out: Minimum Inhibitory Concentration (MIC). An outline of the steps: as §1
For the next assay, the system named is K. oxytoca GN10650. The assay is described as above. Type of assay: cell-based. Conditions: Klebsiella oxytoca, GN10650, 16 h, read-out: Minimum Inhibitory Concentration (MIC), *K. oxytoca GN10650, lactamase-producing strain; 10^6 CFU/ml. An outline of the steps: as §1
For the next assay, the system named is E. cloacae 963. The assay is described as above. Type of assay: cell-based. The settings on record: 10^6 CFU/ml. An outline of the steps: as §1
The next assay has as its system S. aureus 209P NIHJ-JC1. The assay is described as above. Type of assay: cell-based. Conditions: Staphylococcus aureus, 16 h. An outline of the steps: as §1
The test system of another assay is P. vulgaris HX-19. The description is as above. The settings on record: Proteus vulgaris, HX19, 16 h, read-out: Minimum Inhibitory Concentration (MIC). It counts as cell-based. An outline of the steps:
as §1

A further assay has as its system E. cloacae Nek 39. The description is as above. Conditions: Enterobacter cloacae, NEK39, 16 h, read-out: Minimum Inhibitory Concentration (MIC), *E. cloacae Nek 39, lactamase-producing strain; 10^6 CFU/ml. It counts as cell-based. An outline of the steps:
as §1

For the next assay, the system named is S. marcescens IAM 1184. The description is as above. Type of assay: cell-based. The settings on record: Serratia marcescens, IAM1184, 16 h, read-out: Minimum Inhibitory Concentration (MIC). An outline of the steps: as §1
For the next assay, the system named is P. vulgaris No. 33. The description is as above. It counts as cell-based. Conditions: Proteus vulgaris, NO.33, 16 h, read-out: Minimum Inhibitory Concentration (MIC), *P. vulgaris No. 33, lactamase-producing strain; 10^6 CFU/ml. An outline of the steps:
as §1

The subject of the next assay is E. coli NIHJ JC2. The assay is described as above. The settings on record: Escherichia coli, NIHJJC2, 16 h, read-out: Minimum Inhibitory Concentration (MIC), E. coli NIHJ JC2, 10^6 CFU/ml, 37° C. It counts as cell-based. An outline of the steps:
as §1

A further assay deals with K. pneumoniae No. 42. The description is as above. Type of assay: cell-based. Conditions: Klebsiella pneumoniae, NO.42, 16 h, read-out: Minimum Inhibitory Concentration (MIC), *K. pneumoniae No. 42, lactamase-producing strain; 10^6 CFU/ml. An outline of the steps:
as §1

Another assay concerns E. coli GN5482. The description is as above. It counts as cell-based. Conditions: Escherichia coli, GN5482, 16 h. An outline of the steps:
as §1

Where [1] appears, read: read-out: Minimum Inhibitory Concentration (MIC).

The structures appear in SMILES notation. ≈ marks a conversion by molar mass, not a printed value. Like-named read-outs stand apart in the source and are kept apart here. Some results are limits rather than exact numbers.

In the case of `CCON=C(C(=O)N[C@@H]1C(=O)N2C(C(=O)[O-])=C(CSc3nc(-c4ccc(OC(C)=O)c(OC(C)=O)c4)cs3)CS[C@H]12)c1csc(N)n1.[Na+]` [Ex. 49, sodium 3-[4-(3,4-diacetoxyphenyl)-thiazol-2-yl]thiomethyl-7β-[2-(2-aminothiazol-4-yl)-2-ethoxyiminoacetamido]-3-cephem-4-carboxylate], the MIC is 0.05 µg/mL in the assay with Ps. cepacia 23 (Burkholderia cepacia, 23, 16 h); 0.025 µg/mL in the assay on E. coli CSH2 (RK1); 0.05 µg/mL in the assay on E. coli CSH(RE45); 0.39 µg/mL in the assay on A. calcoaceticus No. 4; 0.78 µg/mL in the assay on Ps. aeruginosa IF03445; 100 µg/mL in the assay on Ps. aeruginosa AKR17 (AKR17, 16 h). Further, the MIC is 0.78 µg/mL in the assay with Ps. aeruginosa AK 109 (read-out: Minimum Inhibitory Concentration (MIC), Ps. aeruginosa AK 109, 10^6 CFU/ml); below 0.006 µg/mL with K. pneumoniae PCI-602; 0.1 µg/mL in the assay on M. morganii GN5407; 3.12 µg/mL with S. marcescens No. 16-2; 6.25 µg/mL in the assay on K. oxytoca GN10650; 0.1 µg/mL with E. cloacae 963 (Enterobacter cloacae, 963, 16 h, read-out: Minimum Inhibitory Concentration (MIC), E. cloacae 963). For the same compound, the MIC came out at 1.56 µg/mL in the assay with S. aureus 209P NIHJ-JC1 (read-out: Minimum Inhibitory Concentration (MIC), S. aureus 209P NIHJ-JC1, 10^6 CFU/ml, 37° C., 16 hours); 0.0125 µg/mL in the assay with P. vulgaris HX-19; 0.78 µg/mL with E. cloacae Nek 39; 0.1 µg/mL with S. marcescens IAM 1184; 0.05 µg/mL in the assay on P. vulgaris No. 33; 0.39 µg/mL in the assay with E. coli NIHJ JC2. The MIC in the assay with K. pneumoniae No. 42 came out at 0.05 µg/mL; in the assay with E. coli GN5482 (read-out: Minimum Inhibitory Concentration (MIC), *E. coli GN5482, lactamase-producing strain, 10^6 CFU/ml) it was 1.56 µg/mL.

Regarding `CON=C(C(=O)NC1C(=O)N2C(C(=O)O)=C(CSc3nc(C(=O)O)c(-c4ccc(O)c(O)c4)s3)CSC12)c1csc(N)n1` (stereo not shown) [Ex. 52], the MIC was 0.025 µg/mL (≈ 0.0376 µM) in the assay with Ps. cepacia 23 (Burkholderia cepacia, 16 h, Ps. cepacia 23, 10^6 CFU/ml); 0.0125 µg/mL (≈ 0.0188 µM) with E. coli CSH2 (RK1); 0.05 µg/mL (≈ 0.0752 µM) in the assay on E. coli CSH(RE45); 0.39 µg/mL (≈ 0.587 µM) in the assay on A. calcoaceticus No. 4; 6.25 µg/mL (≈ 9.4 µM) in the assay on Ps. aeruginosa IF03445; above 100 µg/mL with Ps. aeruginosa AKR17 (16 h, Ps. aeruginosa AKR17, 10^6 CFU/ml). Besides, the MIC was 12.5 µg/mL (≈ 18.8 µM) with Ps. aeruginosa AK 109 (setting [1]); below 0.006 µg/mL in the assay on K. pneumoniae PCI-602; 0.1 µg/mL (≈ 0.15 µM) in the assay with M. morganii GN5407; 12.5 µg/mL (≈ 18.8 µM) in the assay on S. marcescens No. 16-2; 6.25 µg/mL (≈ 9.4 µM) in the assay with K. oxytoca GN10650; 0.1 µg/mL (≈ 0.15 µM) in the assay on E. cloacae 963 (Enterobacter cloacae, 16 h, E. cloacae 963, read-out: Minimum Inhibitory Concentration (MIC)). Besides, the MIC in the assay on S. aureus 209P NIHJ-JC1 (setting [1]) worked out at 12.5 µg/mL (≈ 18.8 µM); in the assay on P. vulgaris HX-19, 0.0125 µg/mL (≈ 0.0188 µM); with E. cloacae Nek 39, 0.78 µg/mL (≈ 1.17 µM); in the assay with S. marcescens IAM 1184 (S. marcescens IAM 1184, 10^6 CFU/ml), 0.1 µg/mL (≈ 0.15 µM); in the assay on P. vulgaris No. 33, 0.1 µg/mL (≈ 0.15 µM); in the assay with E. coli NIHJ JC2, 0.39 µg/mL (≈ 0.587 µM). For the same compound, the MIC was 0.1 µg/mL (≈ 0.15 µM) with K. pneumoniae No. 42 and 3.12 µg/mL (≈ 4.69 µM) in the assay with E. coli GN5482 (setting [1]).
